molecular target: T1, AhR (Homo sapiens, UniProt P35869); assay: In Vitro Assay 1: XRE-luciferase reporter assay, antagonism in human cell line (HepG2); conditions: Assay 1: AhR-Luc Human Antagonism (IC50, nM), unmarked values: kynurenine 200 μM, 6 hours
T1 sequence (P35869 11-848): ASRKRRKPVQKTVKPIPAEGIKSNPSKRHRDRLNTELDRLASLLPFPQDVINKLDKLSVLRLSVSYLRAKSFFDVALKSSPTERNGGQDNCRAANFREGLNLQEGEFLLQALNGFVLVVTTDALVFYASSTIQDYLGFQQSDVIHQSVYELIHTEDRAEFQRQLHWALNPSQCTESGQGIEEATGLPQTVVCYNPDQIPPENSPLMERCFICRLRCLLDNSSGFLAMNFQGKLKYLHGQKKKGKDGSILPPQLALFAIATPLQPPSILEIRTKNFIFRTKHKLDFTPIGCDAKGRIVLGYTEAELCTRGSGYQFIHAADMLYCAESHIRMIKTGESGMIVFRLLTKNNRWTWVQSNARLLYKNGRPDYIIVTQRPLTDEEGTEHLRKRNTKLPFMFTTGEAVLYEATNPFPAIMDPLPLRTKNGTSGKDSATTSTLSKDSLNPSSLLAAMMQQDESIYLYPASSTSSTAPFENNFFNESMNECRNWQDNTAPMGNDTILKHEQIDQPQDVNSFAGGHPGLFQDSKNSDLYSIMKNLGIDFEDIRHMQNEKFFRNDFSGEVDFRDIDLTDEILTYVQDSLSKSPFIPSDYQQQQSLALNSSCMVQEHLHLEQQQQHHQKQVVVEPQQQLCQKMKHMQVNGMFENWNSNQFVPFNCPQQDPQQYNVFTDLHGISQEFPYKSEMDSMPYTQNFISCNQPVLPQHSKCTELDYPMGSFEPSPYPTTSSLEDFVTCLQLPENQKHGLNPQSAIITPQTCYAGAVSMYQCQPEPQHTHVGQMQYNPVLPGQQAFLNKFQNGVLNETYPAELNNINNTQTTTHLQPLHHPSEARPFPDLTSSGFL

IC50 [nM] | Structure (SMILES)
10 to 100 | OCC1CCN(c2cc(-c3ccc(OC(F)(F)F)cc3)nc(-c3cccnc3)n2)CC1 [Example 227, (1-(2-(pyridin-3-yl)-6-(4-(trifluoromethoxy)phenyl)pyrimidin-4-yl)piperidin-4-yl)methanol]
10 to 100 | CC(O)C(=O)NC1CCN(c2cc(-c3ccc(Cl)cc3)nc(-c3cccnc3)n2)CC1 (centres unmarked) [Example 237, N-(1-(6-(4-chlorophenyl)-2-(pyridin-3-yl)pyrimidin-4-yl)piperidin-4-yl)-2-hydroxypropanamide]
< 10 | OC[C@H]1CCN(c2cc(-c3ccc(Cl)cc3)nc(-c3cccnc3)n2)C1 [Example 240, (S)-(1-(6-(4-chlorophenyl)-2-(pyridin-3-yl)pyrimidin-4-yl)pyrrolidin-3-yl)methanol]

Second part, the molecule before the results:

Structure (SMILES) | IC50 [nM]
O=C(CO)NC1CCN(c2cc(-c3ccc(Cl)cc3)nc(-c3cccnc3)n2)CC1 [Example 238, N-(1-(6-(4-chlorophenyl)-2-(pyridin-3-yl)pyrimidin-4-yl)piperidin-4-yl)-2-hydroxyacetamide] | 10 to 100
CC(=O)N[C@@H]1CN(c2cc(-c3ccc(Cl)cc3)nc(-c3cccnc3)n2)C[C@H]1O [Example 241, N-((3R,4R)-1-(6-(4-chlorophenyl)-2-(pyridin-3-yl)pyrimidin-4-yl)-4-hydroxypyrrolidin-3-yl)acetamide] | 10 to 100
CC(=O)N[C@@H]1CN(c2cc(-c3ccc(Cl)cc3)nc(-c3cccnc3)n2)C[C@H]1OC(C)=O [Example 242, (3R,4R)-4-acetamido-1-(6-(4-chlorophenyl)-2-(pyridin-3-yl)pyrimidin-4-yl)pyrrolidin-3-yl acetate] | 10 to 100

same assay, conditions: Assay 1: AhR-Luc Human Antagonism (IC50, nM), values marked *: kynurenine 50 μM, 6 hours

IC50 [nM] | Structure (SMILES)
10 to 100 | FC1(F)CCN(c2cc(-c3ccc(Cl)cc3)nc(-c3cccnc3)n2)C1 [Example 198, 4-(4-chlorophenyl)-6-(3,3-difluoropyrrolidin-1-yl)-2-(pyridin-3-yl)pyrimidine]
100 to 1000 | Clc1ccc(-c2cc(N3CCC(N4CCOCC4)C3)nc(-c3cccnc3)n2)cc1 (centres unmarked) [Example 199, 4-(1-(6-(4-chlorophenyl)-2-(pyridin-3-yl)pyrimidin-4-yl)pyrrolidin-3-yl)morpholine]
> 1000 | O=C1CCC(CNc2cc(-c3ccc(Cl)cc3)nc(-c3cccnc3)n2)N1 (centres unmarked) [Example 200, 5-(((6-(4-chlorophenyl)-2-(pyridin-3-yl)pyrimidin-4-yl)amino)methyl)pyrrolidin-2-one]
100 to 1000 | Clc1ccc(-c2cc(N[C@@H]3CCCNC3)nc(-c3cccnc3)n2)cc1 [Example 203, (R)-6-(4-chlorophenyl)-N-(piperidin-3-yl)-2-(pyridin-3-yl)pyrimidin-4-amine]
> 1000 | O=C(O)[C@H]1C[C@H](Nc2cc(-c3ccc(Cl)cc3)nc(-c3cccnc3)n2)CN1 [Example 208, (2R,4S)-4-((6-(4-chlorophenyl)-2-(pyridin-3-yl)pyrimidin-4-yl)amino)pyrrolidine-2-carboxylic acid]
10 to 100 | ClC[C@H]1CCN(c2cc(-c3ccc(Cl)cc3)nc(-c3cccnc3)n2)C1 [Example 211, (S)-4-(3-(chloromethyl)pyrrolidin-1-yl)-6-(4-chlorophenyl)-2-(pyridin-3-yl)pyrimidine]
10 to 100 | N#CC1CCN(c2cc(-c3ccc(Cl)cc3)nc(-c3cccnc3)n2)C1 (centres unmarked) [Example 212, 1-(6-(4-chlorophenyl)-2-(pyridin-3-yl)pyrimidin-4-yl)pyrrolidine-3-carbonitrile]
10 to 100 | CC[C@@H](O)CNc1cc(-c2ccc(Cl)cc2)nc(-c2cccnc2)n1 [Example 213, (R)-1-((6-(4-chlorophenyl)-2-(pyridin-3-yl)pyrimidin-4-yl)amino)butan-2-ol]
< 10 | O[C@@H]1CN(c2cc(-c3ccc(Cl)cc3)nc(-c3cccnc3)n2)C[C@H]1F [Example 234, (3R,4R)-1-(6-(4-chlorophenyl)-2-(pyridin-3-yl)pyrimidin-4-yl)-4-fluoropyrrolidin-3-ol]

Continued, molecule first:

Structure (SMILES) | IC50 [nM]
CO[C@H]1CN(C)C[C@@H]1Nc1cc(-c2ccc(Cl)cc2)nc(-c2cccnc2)n1 [Example 202, 6-(4-chlorophenyl)-N-((3S,4S)-4-methoxy-1-methylpyrrolidin-3-yl)-2-(pyridin-3-yl)pyrimidin-4-amine] | > 1000
Clc1ccc(-c2cc(NC3CCCNC3)nc(-c3cccnc3)n2)cc1 (centres unmarked) [Example 204, 6-(4-chlorophenyl)-N-(piperidin-3-yl)-2-(pyridin-3-yl)pyrimidin-4-amine] | > 1000
F[C@@H]1CNCC[C@H]1Nc1cc(-c2ccc(Cl)cc2)nc(-c2cccnc2)n1 [Example 205, 6-(4-chlorophenyl)-N-((3R,4R)-3-fluoropiperidin-4-yl)-2-(pyridin-3-yl)pyrimidin-4-amine] | > 1000
Clc1ccc(-c2cc(NC[C@H]3CCNC3)nc(-c3cccnc3)n2)cc1 [Example 206, (S)-6-(4-chlorophenyl)-2-(pyridin-3-yl)-N-(pyrrolidin-3-ylmethyl)pyrimidin-4-amine] | > 1000
COC(=O)[C@H]1C[C@@H](Nc2cc(-c3ccc(Cl)cc3)nc(-c3cccnc3)n2)CN1 [Example 207, methyl (2R,4R)-4-((6-(4-chlorophenyl)-2-(pyridin-3-yl)pyrimidin-4-yl)amino)pyrrolidine-2-carboxylate] | > 1000
ClC[C@@H]1CCN(c2cc(-c3ccc(Cl)cc3)nc(-c3cccnc3)n2)C1 [Example 210, (R)-4-(3-(chloromethyl)pyrrolidin-1-yl)-6-(4-chlorophenyl)-2-(pyridin-3-yl)pyrimidine] | 10 to 100
O[C@@H]1CC[C@H](Nc2cc(-c3ccc(Cl)cc3)nc(-c3cccnc3)n2)C1 [Example 214, (1R,3S)-3-((6-(4-chlorophenyl)-2-(pyridin-3-yl)pyrimidin-4-yl)amino)cyclopentan-1-ol] | 10 to 100
COCCN1CCN(c2cc(-c3ccc(Cl)cc3)nc(-c3cccnc3)n2)CC1 [Example 218, 4-(4-chlorophenyl)-6-(4-(2-methoxyethyl)piperazin-1-yl)-2-(pyridin-3-yl)pyrimidine] | < 10
O[C@@H]1CCN(c2cc(-c3ccc(Cl)cc3)nc(-c3cccnc3)n2)C[C@@H]1F [Example 219, (3S,4R)-1-(6-(4-chlorophenyl)-2-(pyridin-3-yl)pyrimidin-4-yl)-3-fluoropiperidin-4-ol] | < 10
O[C@H]1CCN(c2cc(-c3ccc(Cl)cc3)nc(-c3cccnc3)n2)C[C@H]1F [Example 220, (3R,4S)-1-(6-(4-chlorophenyl)-2-(pyridin-3-yl)pyrimidin-4-yl)-3-fluoropiperidin-4-ol] | 10 to 100
O[C@@H]1CCN(c2cc(-c3ccc(Cl)cc3)nc(-c3cccnc3)n2)C[C@H]1F [Example 221, (3R,4R)-1-(6-(4-chlorophenyl)-2-(pyridin-3-yl)pyrimidin-4-yl)-3-fluoropiperidin-4-ol] | 10 to 100
O[C@H]1CCN(c2cc(-c3ccc(Cl)cc3)nc(-c3cccnc3)n2)C[C@@H]1F [Example 222, (3S,4S)-1-(6-(4-chlorophenyl)-2-(pyridin-3-yl)pyrimidin-4-yl)-3-fluoropiperidin-4-ol] | < 10
O=C(CO)N1CCN(c2cc(-c3ccc(Cl)cc3)nc(-c3cccnc3)n2)CC1 [Example 223, 1-(4-(6-(4-chlorophenyl)-2-(pyridin-3-yl)pyrimidin-4-yl)piperazin-1-yl)-2-hydroxyethan-1-one] | < 10
OCC1CCN(c2cc(-c3ccc(Cl)cc3)nc(-c3cccnc3)n2)CC1O (centres unmarked) [Example 233, 1-(6-(4-chlorophenyl)-2-(pyridin-3-yl)pyrimidin-4-yl)-4-(hydroxymethyl)piperidin-3-ol] | < 10
